Source: patent US20250051332A1 (priority 2022, published 2025)

Columns and labels:
κOR = target: T1, κOR (Homo sapiens, UniProt P41145); test: PathHunter β-arrestin-2 recruitment assay at the κOR; format: cell-based; conditions: FIG. 6
T1 construct: host or cells: CHO-K1
Source text: Cell Lines and Cell Culture. To perform the HitHunter cAMP accumulation assay, Chinese hamster ovary cells (CHO-K1) stably expressing human μ-opioid receptor (OPRM1, catalog no. 95-0107C2, DiscoverX, Fremont, CA, USA), K-opioid receptor (OPRK1, catalog no. 95-0088C2, DiscoverX, Fremont, CA, USA), or 6-opioid receptor (OPRD1, catalog no. 95-0108C2, DiscoverX, Fremont, CA, USA) were maintained at 80% confluence in F-12 media supplemented with 10% fetal bovine serum, 1% penicillin/streptomycin/L-glutamine, and 800 μg/mL G418. To perform the PathHunter β-arrestin-2 recruitment assay, U2OS-human κ opioid receptor (κOR) cells stably expressing the κOR and β-arrestin-2 (RRID:CVCL_LA97, DiscoverX, Fremont, CA, USA) were maintained in McCoy's 5A media supplemented with 10% FBS and containing 500 μg/mL geneticin and 250 μg/mL hygromycin. All cells were grown 37° C. under 5% CO2 in a humidified incubator under sterile conditions in T75 flasks. During passaging, cells were dislodged from the flask following a 3-5 min incubation with 0.25% trypsin or non-enzymatic detachment reagent and subcultivated at ratios of 1:10 (CHO) and 3:10 (U2OS).
PathHunter β-arrestin-2 Recruitment Assay. The R-arrestin-2 recruitment assay was performed using U2OS-human (κOR) PathHunter R-arrestin-2 cells (DiscoverX) as previously described.^77

MOR = MOR (Homo sapiens, UniProt P35372); test: PDSP radioligand displacement binding; conditions: average of three independent trials
MOR, sequence (P35372 whole entry): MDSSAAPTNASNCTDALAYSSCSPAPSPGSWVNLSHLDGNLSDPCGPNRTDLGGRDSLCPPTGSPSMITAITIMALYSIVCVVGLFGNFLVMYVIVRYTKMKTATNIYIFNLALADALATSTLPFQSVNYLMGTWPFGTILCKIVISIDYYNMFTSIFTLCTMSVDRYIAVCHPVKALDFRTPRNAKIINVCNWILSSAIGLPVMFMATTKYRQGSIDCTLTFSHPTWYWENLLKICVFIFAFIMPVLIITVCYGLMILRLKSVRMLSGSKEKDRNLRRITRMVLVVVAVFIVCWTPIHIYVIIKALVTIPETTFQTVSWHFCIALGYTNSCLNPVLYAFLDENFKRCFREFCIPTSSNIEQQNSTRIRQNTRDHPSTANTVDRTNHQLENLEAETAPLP

DOR = DOR (Homo sapiens, UniProt P41143); test: PDSP radioligand displacement binding; conditions: average of three independent trials
DOR, sequence (P41143 whole entry): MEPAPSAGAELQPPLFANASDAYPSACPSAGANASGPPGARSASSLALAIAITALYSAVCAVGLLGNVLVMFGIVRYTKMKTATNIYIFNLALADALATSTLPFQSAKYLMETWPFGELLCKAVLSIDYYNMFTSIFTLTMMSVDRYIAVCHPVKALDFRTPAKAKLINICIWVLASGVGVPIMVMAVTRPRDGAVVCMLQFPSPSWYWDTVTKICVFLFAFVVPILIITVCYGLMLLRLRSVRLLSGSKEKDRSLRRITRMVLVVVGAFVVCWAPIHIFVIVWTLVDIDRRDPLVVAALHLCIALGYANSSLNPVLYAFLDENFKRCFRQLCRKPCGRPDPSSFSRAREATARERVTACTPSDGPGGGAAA

5-HT3 = target: T2, 5-HT3 (Homo sapiens, UniProt P46098); test: PDSP radioligand displacement binding; conditions: average of three independent trials
T2 sequence (P46098 24-478): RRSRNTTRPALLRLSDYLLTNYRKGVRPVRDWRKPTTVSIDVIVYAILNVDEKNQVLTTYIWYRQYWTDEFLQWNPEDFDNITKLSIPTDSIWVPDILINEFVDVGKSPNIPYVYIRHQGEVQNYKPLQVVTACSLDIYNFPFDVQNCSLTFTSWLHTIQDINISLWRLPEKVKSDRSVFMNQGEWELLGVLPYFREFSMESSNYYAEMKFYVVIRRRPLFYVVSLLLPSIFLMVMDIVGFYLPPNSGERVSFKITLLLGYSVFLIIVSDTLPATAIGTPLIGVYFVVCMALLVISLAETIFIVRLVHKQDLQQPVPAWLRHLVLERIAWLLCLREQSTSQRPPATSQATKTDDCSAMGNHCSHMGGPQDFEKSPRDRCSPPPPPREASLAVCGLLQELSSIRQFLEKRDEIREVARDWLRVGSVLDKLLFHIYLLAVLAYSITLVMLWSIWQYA

5-HT5A = 5-HT5A (Homo sapiens, UniProt P47898); test: PDSP radioligand displacement binding; conditions: average of three independent trials
5-HT5A, sequence (P47898 whole entry, species assumed): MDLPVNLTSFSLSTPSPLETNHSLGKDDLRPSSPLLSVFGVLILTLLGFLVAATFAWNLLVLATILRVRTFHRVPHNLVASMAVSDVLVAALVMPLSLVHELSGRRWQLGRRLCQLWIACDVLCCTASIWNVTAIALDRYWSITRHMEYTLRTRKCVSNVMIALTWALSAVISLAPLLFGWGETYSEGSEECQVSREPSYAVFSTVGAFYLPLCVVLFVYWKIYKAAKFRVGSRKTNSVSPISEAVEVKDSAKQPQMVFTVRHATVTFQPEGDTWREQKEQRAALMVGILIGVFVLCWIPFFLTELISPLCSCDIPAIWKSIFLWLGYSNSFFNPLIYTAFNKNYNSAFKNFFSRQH

5-HT7A = 5-HT7A (Homo sapiens, UniProt P34969); test: PDSP radioligand displacement binding; conditions: average of three independent trials
5-HT7A, sequence (P34969 1-445 isoform P34969-2): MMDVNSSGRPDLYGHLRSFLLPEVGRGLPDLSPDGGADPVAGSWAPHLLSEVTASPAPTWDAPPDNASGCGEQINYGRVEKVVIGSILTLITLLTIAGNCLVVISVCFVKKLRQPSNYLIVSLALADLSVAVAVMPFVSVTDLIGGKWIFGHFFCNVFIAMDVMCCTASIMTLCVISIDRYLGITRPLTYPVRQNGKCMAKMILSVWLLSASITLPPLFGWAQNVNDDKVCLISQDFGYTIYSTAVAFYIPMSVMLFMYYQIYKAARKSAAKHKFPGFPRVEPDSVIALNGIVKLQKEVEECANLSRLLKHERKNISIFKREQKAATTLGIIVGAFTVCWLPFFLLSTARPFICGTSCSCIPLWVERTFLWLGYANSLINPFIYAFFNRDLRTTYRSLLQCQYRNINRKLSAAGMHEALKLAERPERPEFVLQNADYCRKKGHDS

Alpha1B = target: T3, Alpha1B (Homo sapiens, UniProt P35368); test: PDSP radioligand displacement binding; conditions: average of three independent trials
T3 sequence (P35368 1-520): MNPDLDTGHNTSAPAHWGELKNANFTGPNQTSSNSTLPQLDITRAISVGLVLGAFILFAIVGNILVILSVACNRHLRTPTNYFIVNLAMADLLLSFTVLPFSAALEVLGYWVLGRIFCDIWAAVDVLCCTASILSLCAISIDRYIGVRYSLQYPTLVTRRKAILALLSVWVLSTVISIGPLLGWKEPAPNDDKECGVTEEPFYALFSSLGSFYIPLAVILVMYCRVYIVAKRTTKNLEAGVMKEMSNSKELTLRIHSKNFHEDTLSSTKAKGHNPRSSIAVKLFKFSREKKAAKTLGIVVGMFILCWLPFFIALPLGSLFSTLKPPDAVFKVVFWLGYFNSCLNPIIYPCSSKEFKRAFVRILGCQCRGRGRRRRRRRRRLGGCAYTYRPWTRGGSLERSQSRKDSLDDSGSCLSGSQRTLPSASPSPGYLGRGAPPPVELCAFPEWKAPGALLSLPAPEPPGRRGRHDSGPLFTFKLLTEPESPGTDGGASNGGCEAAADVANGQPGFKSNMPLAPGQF

Alpha1D = target: T4, Alpha1D (Homo sapiens, UniProt P25100); test: PDSP radioligand displacement binding; conditions: average of three independent trials
T4 sequence (P25100 1-572): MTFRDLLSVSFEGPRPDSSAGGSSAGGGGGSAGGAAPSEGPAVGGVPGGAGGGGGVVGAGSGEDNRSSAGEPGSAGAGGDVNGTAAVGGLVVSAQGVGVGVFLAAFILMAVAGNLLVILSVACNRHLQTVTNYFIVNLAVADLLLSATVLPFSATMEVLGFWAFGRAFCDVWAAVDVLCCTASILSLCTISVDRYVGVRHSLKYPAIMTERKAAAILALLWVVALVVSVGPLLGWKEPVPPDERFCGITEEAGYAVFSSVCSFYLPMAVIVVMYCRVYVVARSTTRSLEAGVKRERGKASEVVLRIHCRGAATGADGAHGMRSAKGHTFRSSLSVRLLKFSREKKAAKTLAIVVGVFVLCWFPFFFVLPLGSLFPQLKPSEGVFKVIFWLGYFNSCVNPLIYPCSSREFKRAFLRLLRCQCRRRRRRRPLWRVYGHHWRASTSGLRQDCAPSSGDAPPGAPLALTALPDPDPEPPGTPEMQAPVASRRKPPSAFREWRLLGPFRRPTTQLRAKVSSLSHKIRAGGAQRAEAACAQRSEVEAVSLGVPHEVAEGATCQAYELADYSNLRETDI

Alpha7 = Alpha7 (Homo sapiens, UniProt P36544); test: PDSP radioligand displacement binding; conditions: average of three independent trials
Alpha7, sequence (P36544 23-502): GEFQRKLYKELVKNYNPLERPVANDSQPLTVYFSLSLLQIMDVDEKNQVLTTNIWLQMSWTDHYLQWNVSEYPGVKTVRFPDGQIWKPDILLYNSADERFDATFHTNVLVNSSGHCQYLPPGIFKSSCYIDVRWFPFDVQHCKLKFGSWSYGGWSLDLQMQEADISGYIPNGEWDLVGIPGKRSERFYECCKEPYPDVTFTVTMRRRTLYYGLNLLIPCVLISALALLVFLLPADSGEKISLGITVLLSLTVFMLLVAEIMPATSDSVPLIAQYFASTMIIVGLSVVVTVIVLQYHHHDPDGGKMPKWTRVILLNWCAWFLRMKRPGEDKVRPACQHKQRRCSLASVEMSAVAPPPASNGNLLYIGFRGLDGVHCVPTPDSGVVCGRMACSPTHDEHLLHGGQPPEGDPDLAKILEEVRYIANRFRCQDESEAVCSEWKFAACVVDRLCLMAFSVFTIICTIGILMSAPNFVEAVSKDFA

HERG = HERG (Homo sapiens, UniProt Q12809); test: PDSP radioligand displacement binding; conditions: average of three independent trials
HERG, sequence (Q12809 whole entry): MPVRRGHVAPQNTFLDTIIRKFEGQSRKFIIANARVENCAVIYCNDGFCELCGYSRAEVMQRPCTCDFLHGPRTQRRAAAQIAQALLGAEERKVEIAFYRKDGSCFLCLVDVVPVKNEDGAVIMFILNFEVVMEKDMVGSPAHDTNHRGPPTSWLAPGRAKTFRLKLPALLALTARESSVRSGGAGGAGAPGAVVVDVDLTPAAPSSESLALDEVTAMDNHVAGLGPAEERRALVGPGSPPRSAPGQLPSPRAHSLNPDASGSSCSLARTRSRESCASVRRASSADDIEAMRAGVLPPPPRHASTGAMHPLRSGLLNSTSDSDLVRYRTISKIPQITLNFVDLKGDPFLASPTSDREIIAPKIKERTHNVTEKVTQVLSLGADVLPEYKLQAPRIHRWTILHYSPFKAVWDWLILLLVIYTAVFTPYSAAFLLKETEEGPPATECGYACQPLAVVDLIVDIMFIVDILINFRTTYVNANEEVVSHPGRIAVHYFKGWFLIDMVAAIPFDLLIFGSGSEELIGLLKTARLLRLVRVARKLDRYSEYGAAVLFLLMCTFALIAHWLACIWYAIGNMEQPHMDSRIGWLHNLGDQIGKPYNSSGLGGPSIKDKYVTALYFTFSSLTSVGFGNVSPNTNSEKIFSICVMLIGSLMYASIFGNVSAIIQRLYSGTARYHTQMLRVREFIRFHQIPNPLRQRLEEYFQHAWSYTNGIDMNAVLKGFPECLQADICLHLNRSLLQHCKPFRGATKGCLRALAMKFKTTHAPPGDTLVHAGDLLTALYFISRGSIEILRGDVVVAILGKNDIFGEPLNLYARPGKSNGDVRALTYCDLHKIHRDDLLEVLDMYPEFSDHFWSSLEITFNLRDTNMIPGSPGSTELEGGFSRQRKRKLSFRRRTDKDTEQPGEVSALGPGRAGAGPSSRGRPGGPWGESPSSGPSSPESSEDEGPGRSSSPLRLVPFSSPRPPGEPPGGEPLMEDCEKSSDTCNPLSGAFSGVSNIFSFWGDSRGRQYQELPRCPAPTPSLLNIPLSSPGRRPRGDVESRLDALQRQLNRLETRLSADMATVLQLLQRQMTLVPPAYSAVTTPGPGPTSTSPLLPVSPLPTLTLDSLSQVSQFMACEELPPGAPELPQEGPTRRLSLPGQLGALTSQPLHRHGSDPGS

NET = NET (Homo sapiens, UniProt P23975); test: PDSP radioligand displacement binding; conditions: average of three independent trials
NET, sequence (P23975 whole entry): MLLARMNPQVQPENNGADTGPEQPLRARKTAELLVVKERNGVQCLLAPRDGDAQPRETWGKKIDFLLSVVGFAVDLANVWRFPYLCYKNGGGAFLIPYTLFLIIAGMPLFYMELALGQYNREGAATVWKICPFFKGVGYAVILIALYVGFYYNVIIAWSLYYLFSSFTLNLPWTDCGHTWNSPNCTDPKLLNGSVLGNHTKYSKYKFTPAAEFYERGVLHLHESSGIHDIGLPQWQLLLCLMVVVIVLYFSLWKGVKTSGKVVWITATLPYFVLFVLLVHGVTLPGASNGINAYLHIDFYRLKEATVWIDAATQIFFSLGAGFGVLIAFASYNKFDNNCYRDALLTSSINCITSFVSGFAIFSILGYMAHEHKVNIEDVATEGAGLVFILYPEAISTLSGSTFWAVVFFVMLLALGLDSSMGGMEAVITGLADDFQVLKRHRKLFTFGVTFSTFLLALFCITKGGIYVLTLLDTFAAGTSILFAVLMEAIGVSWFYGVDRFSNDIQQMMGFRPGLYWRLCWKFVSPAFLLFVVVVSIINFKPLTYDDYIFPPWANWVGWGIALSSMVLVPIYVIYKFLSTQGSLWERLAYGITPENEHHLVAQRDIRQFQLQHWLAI

T1 sequence (P41145 whole entry): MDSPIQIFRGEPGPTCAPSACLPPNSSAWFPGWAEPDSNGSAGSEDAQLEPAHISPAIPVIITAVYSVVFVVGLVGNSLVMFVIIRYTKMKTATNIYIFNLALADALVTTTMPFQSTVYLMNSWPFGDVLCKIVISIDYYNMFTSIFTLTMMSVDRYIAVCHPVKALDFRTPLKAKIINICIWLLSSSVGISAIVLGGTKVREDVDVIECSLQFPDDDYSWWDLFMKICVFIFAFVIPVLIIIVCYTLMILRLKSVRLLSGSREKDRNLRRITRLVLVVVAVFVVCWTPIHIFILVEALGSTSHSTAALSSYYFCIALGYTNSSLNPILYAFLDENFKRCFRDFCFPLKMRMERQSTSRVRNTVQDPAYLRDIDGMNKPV

Row | Compound | βArr2 recruitment compared with U50,488 (κOR) | Ki (nM) at MOR (MOR) | Ki (nM) at DOR (DOR) | Ki (5-HT3) [nM] | Ki (5-HT5A) [nM] | Ki (5-HT7A) [nM] | Ki (Alpha1B) [nM] | Ki (nM) at Alpha1D (Alpha1D) | Ki (Alpha7) [nM] | Ki (HERG) [nM] | Ki (nM) at NET (NET) | Ki (Alpha1D) [nM] | Ki (NET) [nM]
1 | C/C=C1/CN2CC[C@]34C(=C(C(=O)OC)[C@H]1C[C@H]23)Nc1ccc(Br)cc14 [Compound 2, 10-Bromoakuammicine] | more efficacious than the reference compound U50,488 | — (“—” indicates compound produced less than 50% displacement of radioligand in primary binding screen at 10 μM.) | — (“—” indicates compound produced less than 50% displacement of radioligand in primary binding screen at 10 μM.) | 210 | 721 | 1520 | 2880 | — (“—” indicates compound produced less than 50% displacement of radioligand in primary binding screen at 10 μM.) | 7000 | 1340 | — (“—” indicates compound produced less than 50% displacement of radioligand in primary binding screen at 10 μM.) |  | 
2 | C/C=C1/CN2CC[C@]34C(=C(C(=O)OC)[C@H]1C[C@H]23)Nc1ccc(I)cc14 [Compound 3, 10-Iodoakuammicine] | more efficacious than the reference compound U50,488 | — (“—” indicates compound produced less than 50% displacement of radioligand in primary binding screen at 10 μM.) | — (“—” indicates compound produced less than 50% displacement of radioligand in primary binding screen at 10 μM.) | 384 | 829 | 1380 | 2020 |  | 5490 | 1100 |  | 1140 | 3440
